Assay results taken from PubChem BioAssay (NCI).
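Where inhibition never reached the appropriate level, the endpoint shown equals the highest concentration tested. Otherwise, values were interpolated linearly from a five-concentration, 48-hour dose response in 96-well plates. Here, GI50 denotes the concentration required for 50% inhibition of growth. TGI is the concentration that stops growth completely.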

How the values were obtained:
Assay in all cases: DTP human tumour cell line panel, 48 h
[1] = tested on: HL-60(TB) leukemia
[2] = tested on: HT29 colon
[3] = tested on: MOLT-4 leukemia
[4] = tested on: OVCAR-3 ovarian
[5] = tested on: OVCAR-8 ovarian
[6] = tested on: RXF 393 renal
[7] = tested on: SNB-19 CNS
[8] = tested on: SW-620 colon
[9] = tested on: BT-549 breast
[10] = tested on: SR leukemia

Compound	TGI [1] [µM]	TGI [2] [µM]	TGI [3] [µM]	TGI [4] [µM]	TGI [5] [µM]	TGI [6] [µM]	TGI [7] [µM]	TGI [8] [µM]	TGI [9] [µM]	GI50 [9] [µM]	GI50 [2] [µM]	GI50 [3] [µM]	GI50 [5] [µM]	GI50 [7] [µM]	GI50 [10] [µM]	TGI [10] [µM]	GI50 [8] [µM]	GI50 [1] [µM]	GI50 [4] [µM]	GI50 [6] [µM]
Cc1ccc(Sc2cc([N+](=O)[O-])cc(Sc3ccc(C)cc3)c2Sc2ccc(C)cc2)cc1	> 100	> 100	> 100	> 100	> 100	> 100	> 100	> 100	–	–	–	–	–	–	–	–	–	–	–	–
COc1ccc(/C=C/c2cnnc3ccccc23)cc1OC	> 10	> 10	> 10	> 10	> 10	> 10	> 10	> 10	> 10	–	–	–	–	–	–	–	–	–	–	–
COC(=O)/C=C/c1cc(OC)c2c(c1)[C@@H](C(=O)OC)[C@H](c1ccc(OC)c(OC)c1)O2	–	> 100	> 100	–	> 100	–	> 100	> 100	> 100	4.88	0.505	1.73	4.53	8.64	0.543	> 100	0.561	–	–	–
N=C(N)c1ccc(-c2ccc(-c3ccccc3)o2)o1	5.2	4.7	10.2	11.9	16.9	6.55	10.1	4.2	16	4.12	2.11	3.31	4	3.01	–	–	1.79	2.18	3.13	2.33
COc1ccc(/C=C\c2cc(OC)c(OC(C)=O)c(OC)c2)cc1	–	47.9	38.6	> 100	76.7	–	> 100	> 100	–	–	–	–	–	–	–	98.2	–	–	–	–
CCCCCCCCCCCC(=O)[O][Sn]([CH2]CCC)([CH2]CCC)[CH2]CCC	0.155	0.11	0.732	0.125	0.363	0.117	0.228	0.138	0.184	0.0623	0.0355	0.0436	0.0842	0.0859	–	–	0.0419	0.0567	0.0518	0.0483
O=C1OC(/C=C/c2ccccc2)C(=O)C1=O (stereo unspecified)	> 100	> 100	> 100	–	–	> 100	> 100	> 100	–	–	–	–	–	–	–	–	–	–	–	–
O=C(c1ccccc1)C(c1ccccc1)C1(O)C(=O)Nc2ccc(Br)cc21 (stereo unspecified)	48.2	> 100	> 100	> 100	> 100	> 100	> 100	> 100	–	–	–	–	–	–	–	> 100	–	–	–	–
COc1cccc(/C=N/[N-]C(N)=O)c1[O-].[Cu+2].c1ccncc1	55.1	85.3	69.3	28.8	86.1	28.6	25	40.8	–	–	–	–	–	–	–	–	–	26.5	–	–
CCn1cc(C(=O)O)c(=O)c2cc(F)c(N3CCNCC3)nc21	> 100	> 100	> 100	> 100	> 100	–	> 100	> 100	–	–	–	–	–	–	–	> 100	–	–	–	–
